Several values for one entry are separate records, joined by “and”; a condition that tells them apart may be missing. Identical values can stand only once.
Columns and labels:
Type in all cases: cell-based
[1] = target: kinases in BCWM.1 cells (Homo sapiens, UniProt Q99755); conditions: PIP5K1A; ATP; 1 μM, 90 min; GF
Experimental: (§1) The cells were harvested and lysed. […] Bound kinases were identified and quantitated by ACTIVX as described in Patricelli et al., Biochemistry, 2007, 46(2): 350-358. The compounds were tested in duplicates against duplicate or quadruplicate control samples.

[2] = target: kinases in BCWM.1 cells (Homo sapiens, UniProt O00418); conditions: eEF2K; ATP; 1 μM; GF
Experimental: as §1

[3] = target: kinases in BCWM.1 cells (Homo sapiens, UniProt O15111); conditions: IKKa; Lys2; 1 μM; GF
Experimental: as §1

[4] = target: kinases in BCWM.1 cells (Homo sapiens, UniProt O75582); conditions: MSK1 domain1; Lys2; 1 μM; GF
Experimental: as §1

[5] = target: kinases in BCWM.1 cells (Homo sapiens, UniProt O75676); conditions: MSK2 domain1; Lys2; 1 μM; GF
Experimental: as §1

[6] = target: kinases in BCWM.1 cells (Homo sapiens, UniProt O94806); conditions: PKD3; Lys1; 1 μM, 90 min; GF
Experimental: as §1

[7] = target: kinases in BCWM.1 cells (Homo sapiens, UniProt O95382); conditions: MAP3K6; Lys2; 1 μM; GF
Experimental: as §1

[8] = target: kinases in BCWM.1 cells (Homo sapiens, UniProt P06239); conditions: LCK; Activation Loop; 1 μM; GF
Experimental: as §1

[9] = target: kinases in BCWM.1 cells (Homo sapiens, UniProt P07948); conditions: LYN; Lys1; 1 μM; GF
Experimental: as §1

[10] = target: kinases in BCWM.1 cells (Homo sapiens, UniProt P19784); conditions: CK2a2; Lys2; 1 μM; GF
Experimental: as §1

[11] = target: kinases in BCWM.1 cells (Homo sapiens, UniProt P27448); conditions: MARK3; Lys1; 1 μM; GF
Experimental: as §1

[12] = target: kinases in BCWM.1 cells (Homo sapiens, UniProt P28482); conditions: Erk2; Lys2; 1 μM; GF
Experimental: as §1

[13] = target: kinases in BCWM.1 cells (Homo sapiens, UniProt P29323); conditions: EphB2; Activation Loop; 1 μM; GF
Experimental: as §1

[14] = target: kinases in BCWM.1 cells (Homo sapiens, UniProt P41743); conditions: PKCi; Lys1; 1 μM, 90 min; GF
Experimental: as §1

[15] = target: kinases in BCWM.1 cells (Homo sapiens, UniProt P49760); conditions: CLK2; Lys2; 1 μM; GF
Experimental: as §1

[16] = target: kinases in BCWM.1 cells (Homo sapiens, UniProt P50750); conditions: CDK9; Lys2; 1 μM; GF
Experimental: as §1

[17] = target: kinases in BCWM.1 cells (Homo sapiens, UniProt P51451); conditions: BLK; Activation Loop; 1 μM; GF
Experimental: as §1

[18] = target: kinases in BCWM.1 cells (Homo sapiens, UniProt P51956); conditions: NEK3; Activation Loop; 1 μM, 90 min; GF
Experimental: as §1

[19] = target: kinases in BCWM.1 cells (Homo sapiens, UniProt P54762); conditions: EphB1; Activation Loop; 1 μM; GF
Experimental: as §1

[20] = target: kinases in BCWM.1 cells (Homo sapiens, UniProt P78356); conditions: PIP4K2B; ATP; 1 μM, 90 min; GF
Experimental: as §1

[21] = target: kinases in BCWM.1 cells (Homo sapiens, UniProt Q00535); conditions: CDK5; Lys2; 1 μM; GF
Experimental: as §1

[22] = target: kinases in BCWM.1 cells (Homo sapiens, UniProt Q02156); conditions: PKCe; Lys2; 1 μM, 90 min; GF
Experimental: as §1

[23] = target: kinases in BCWM.1 cells (Homo sapiens, UniProt Q13164); conditions: Erk5; Lys2; 1 μM; GF
Experimental: as §1

[24] = target: kinases in BCWM.1 cells (Homo sapiens, UniProt Q15831); conditions: LKB1; Lys2; 1 μM; GF
Experimental: as §1

[25] = target: kinases in BCWM.1 cells (Homo sapiens, UniProt Q16513); conditions: PKN2; Lys2; 1 μM, 90 min; GF
Experimental: as §1

[26] = target: kinases in BCWM.1 cells (Homo sapiens, UniProt Q5TCX8); conditions: MLK4; Lys2; 1 μM; GF
Experimental: as §1

[27] = target: kinases in BCWM.1 cells (Homo sapiens, UniProt Q96RR4); conditions: CaMKK2; Lys2; 1 μM; GF
Experimental: as §1

[28] = target: kinases in BCWM.1 cells (Homo sapiens, UniProt Q9C0K7); conditions: STLK6; Lys1; 1 μM, 90 min; GF
Experimental: as §1

[29] = target: kinases in BCWM.1 cells (Homo sapiens, UniProt Q9P2K8); conditions: GCN2; Lys2; 1 μM; GF
Experimental: as §1

[30] = target: kinases in BCWM.1 cells (Homo sapiens, UniProt Q9Y2U5); conditions: MAP3K2; Lys1; 1 μM; GF
Experimental: as §1

Sequence of kinases in BCWM.1 cells (Homo sapiens, UniProt Q96RR4) (Q96RR4 2-588 limits assumed): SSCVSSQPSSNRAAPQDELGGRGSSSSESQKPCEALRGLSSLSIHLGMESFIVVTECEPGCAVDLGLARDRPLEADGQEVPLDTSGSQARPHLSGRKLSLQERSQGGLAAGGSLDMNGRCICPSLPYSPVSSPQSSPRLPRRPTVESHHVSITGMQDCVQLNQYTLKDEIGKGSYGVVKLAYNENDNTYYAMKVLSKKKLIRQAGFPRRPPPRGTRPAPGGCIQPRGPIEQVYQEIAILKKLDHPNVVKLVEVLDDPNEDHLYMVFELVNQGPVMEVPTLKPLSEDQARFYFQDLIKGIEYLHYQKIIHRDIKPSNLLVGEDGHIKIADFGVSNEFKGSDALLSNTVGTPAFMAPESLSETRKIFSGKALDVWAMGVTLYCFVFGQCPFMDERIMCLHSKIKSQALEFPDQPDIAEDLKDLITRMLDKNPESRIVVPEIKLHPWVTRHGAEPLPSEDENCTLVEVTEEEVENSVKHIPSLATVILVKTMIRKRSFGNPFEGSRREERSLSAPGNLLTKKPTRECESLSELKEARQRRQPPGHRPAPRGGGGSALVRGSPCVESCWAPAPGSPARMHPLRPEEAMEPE
Sequence of kinases in BCWM.1 cells (Homo sapiens, UniProt P06239) (P06239 2-509 limits assumed): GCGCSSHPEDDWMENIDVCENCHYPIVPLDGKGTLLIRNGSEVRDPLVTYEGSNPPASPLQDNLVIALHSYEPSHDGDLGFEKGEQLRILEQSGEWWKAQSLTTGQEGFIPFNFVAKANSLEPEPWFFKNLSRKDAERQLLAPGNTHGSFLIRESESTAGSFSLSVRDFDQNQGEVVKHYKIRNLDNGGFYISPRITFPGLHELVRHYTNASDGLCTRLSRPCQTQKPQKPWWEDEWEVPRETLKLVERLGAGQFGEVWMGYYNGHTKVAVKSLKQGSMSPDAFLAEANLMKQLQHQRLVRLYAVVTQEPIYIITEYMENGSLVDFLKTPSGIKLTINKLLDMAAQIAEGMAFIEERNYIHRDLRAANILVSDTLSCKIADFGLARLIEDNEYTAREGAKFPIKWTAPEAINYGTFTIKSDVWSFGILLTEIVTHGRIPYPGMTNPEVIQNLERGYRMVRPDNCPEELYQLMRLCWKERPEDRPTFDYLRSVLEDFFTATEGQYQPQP
Sequence of kinases in BCWM.1 cells (Homo sapiens, UniProt O00418) (O00418 2-725 limits assumed): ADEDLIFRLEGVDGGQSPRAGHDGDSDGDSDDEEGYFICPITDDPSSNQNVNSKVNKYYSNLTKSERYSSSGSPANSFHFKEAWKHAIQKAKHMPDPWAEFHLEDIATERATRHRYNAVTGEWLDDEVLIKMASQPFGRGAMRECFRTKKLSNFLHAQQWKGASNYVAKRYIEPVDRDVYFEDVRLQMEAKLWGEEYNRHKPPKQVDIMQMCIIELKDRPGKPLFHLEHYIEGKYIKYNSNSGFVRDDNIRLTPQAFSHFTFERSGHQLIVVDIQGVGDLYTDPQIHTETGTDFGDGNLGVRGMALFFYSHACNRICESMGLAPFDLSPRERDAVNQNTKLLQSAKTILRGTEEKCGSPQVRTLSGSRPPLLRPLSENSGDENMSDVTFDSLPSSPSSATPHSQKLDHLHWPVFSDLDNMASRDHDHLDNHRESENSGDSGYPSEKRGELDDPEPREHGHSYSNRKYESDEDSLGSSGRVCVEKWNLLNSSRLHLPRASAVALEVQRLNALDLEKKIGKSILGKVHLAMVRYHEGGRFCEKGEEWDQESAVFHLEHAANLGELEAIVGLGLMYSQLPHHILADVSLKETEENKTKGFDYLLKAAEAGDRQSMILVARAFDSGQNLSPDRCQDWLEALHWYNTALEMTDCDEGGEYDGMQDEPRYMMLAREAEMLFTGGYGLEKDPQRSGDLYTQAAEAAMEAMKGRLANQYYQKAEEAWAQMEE
Sequence of kinases in BCWM.1 cells (Homo sapiens, UniProt P29323) (P29323 19-1055 limits assumed): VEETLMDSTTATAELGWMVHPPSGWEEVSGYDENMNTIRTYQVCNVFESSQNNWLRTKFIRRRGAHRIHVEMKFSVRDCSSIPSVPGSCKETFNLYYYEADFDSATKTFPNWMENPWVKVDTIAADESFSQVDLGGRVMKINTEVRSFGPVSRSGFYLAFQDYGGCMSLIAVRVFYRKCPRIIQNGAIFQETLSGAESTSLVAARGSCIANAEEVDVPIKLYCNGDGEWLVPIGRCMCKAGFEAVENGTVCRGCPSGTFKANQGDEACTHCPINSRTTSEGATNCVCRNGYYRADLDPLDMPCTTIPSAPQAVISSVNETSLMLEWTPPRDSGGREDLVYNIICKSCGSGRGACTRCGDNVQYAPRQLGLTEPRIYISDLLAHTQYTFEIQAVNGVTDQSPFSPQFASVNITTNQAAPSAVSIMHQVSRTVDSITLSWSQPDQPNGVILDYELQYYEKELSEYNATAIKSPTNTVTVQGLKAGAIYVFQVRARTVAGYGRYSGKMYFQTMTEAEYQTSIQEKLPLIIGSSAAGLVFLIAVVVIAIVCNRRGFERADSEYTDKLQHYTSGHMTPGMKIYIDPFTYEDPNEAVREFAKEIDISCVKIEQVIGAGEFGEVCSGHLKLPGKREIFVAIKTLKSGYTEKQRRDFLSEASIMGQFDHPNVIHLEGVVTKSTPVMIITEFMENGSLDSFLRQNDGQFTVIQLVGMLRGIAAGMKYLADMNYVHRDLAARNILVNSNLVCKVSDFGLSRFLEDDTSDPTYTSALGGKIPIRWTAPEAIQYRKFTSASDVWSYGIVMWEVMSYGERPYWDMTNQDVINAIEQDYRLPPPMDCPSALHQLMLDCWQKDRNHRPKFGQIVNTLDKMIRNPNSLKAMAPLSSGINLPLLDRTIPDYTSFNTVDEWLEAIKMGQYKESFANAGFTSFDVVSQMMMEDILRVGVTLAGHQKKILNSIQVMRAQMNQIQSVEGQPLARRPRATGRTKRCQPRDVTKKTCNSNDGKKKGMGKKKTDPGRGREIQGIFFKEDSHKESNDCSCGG
Sequence of kinases in BCWM.1 cells (Homo sapiens, UniProt Q13164) (Q13164 2-816 limits assumed): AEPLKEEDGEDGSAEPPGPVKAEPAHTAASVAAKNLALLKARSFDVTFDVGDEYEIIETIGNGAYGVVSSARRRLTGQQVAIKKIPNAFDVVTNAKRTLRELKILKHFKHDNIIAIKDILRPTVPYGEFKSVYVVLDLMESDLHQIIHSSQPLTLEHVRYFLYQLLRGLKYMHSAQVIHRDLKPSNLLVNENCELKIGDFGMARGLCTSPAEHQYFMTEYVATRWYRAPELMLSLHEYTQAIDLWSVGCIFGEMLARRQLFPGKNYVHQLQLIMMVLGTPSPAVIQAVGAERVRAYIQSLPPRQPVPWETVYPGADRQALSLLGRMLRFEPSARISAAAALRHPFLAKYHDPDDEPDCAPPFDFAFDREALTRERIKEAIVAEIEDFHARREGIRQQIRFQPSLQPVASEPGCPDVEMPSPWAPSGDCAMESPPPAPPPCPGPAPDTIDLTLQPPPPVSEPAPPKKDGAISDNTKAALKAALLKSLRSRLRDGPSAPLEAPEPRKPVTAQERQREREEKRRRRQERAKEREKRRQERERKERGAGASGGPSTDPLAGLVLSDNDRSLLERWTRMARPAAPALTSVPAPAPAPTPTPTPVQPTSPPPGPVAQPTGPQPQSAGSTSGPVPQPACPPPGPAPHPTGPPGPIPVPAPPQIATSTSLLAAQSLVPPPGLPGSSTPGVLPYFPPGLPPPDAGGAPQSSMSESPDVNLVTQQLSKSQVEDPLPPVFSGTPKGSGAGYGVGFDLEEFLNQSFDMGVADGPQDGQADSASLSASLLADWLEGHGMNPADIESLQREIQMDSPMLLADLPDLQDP
Sequence of kinases in BCWM.1 cells (Homo sapiens, UniProt P28482) (P28482 2-360 limits assumed): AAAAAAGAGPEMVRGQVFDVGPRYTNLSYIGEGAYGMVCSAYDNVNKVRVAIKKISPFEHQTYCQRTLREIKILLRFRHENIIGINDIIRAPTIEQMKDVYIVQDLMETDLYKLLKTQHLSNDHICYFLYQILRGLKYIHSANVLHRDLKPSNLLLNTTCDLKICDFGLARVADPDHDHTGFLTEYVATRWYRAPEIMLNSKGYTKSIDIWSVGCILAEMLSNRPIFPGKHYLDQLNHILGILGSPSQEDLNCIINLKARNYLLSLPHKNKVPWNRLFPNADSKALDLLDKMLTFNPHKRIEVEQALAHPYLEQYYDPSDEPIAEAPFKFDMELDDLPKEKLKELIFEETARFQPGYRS
Sequence of kinases in BCWM.1 cells (Homo sapiens, UniProt P07948) (P07948 2-512 limits assumed): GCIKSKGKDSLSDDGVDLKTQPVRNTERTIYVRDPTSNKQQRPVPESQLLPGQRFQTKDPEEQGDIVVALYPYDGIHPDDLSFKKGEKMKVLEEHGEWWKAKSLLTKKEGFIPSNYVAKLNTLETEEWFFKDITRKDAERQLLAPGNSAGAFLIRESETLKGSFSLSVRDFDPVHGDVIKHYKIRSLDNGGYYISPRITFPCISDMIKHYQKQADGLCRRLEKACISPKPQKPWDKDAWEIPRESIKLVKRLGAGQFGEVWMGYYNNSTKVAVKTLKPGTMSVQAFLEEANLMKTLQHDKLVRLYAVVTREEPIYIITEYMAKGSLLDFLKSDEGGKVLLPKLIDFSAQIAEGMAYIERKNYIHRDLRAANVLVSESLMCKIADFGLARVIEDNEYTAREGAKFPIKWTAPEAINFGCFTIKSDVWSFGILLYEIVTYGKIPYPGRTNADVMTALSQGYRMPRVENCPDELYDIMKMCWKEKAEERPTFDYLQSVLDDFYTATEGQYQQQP
Sequence of kinases in BCWM.1 cells (Homo sapiens, UniProt P51451) (P51451 2-505 limits assumed): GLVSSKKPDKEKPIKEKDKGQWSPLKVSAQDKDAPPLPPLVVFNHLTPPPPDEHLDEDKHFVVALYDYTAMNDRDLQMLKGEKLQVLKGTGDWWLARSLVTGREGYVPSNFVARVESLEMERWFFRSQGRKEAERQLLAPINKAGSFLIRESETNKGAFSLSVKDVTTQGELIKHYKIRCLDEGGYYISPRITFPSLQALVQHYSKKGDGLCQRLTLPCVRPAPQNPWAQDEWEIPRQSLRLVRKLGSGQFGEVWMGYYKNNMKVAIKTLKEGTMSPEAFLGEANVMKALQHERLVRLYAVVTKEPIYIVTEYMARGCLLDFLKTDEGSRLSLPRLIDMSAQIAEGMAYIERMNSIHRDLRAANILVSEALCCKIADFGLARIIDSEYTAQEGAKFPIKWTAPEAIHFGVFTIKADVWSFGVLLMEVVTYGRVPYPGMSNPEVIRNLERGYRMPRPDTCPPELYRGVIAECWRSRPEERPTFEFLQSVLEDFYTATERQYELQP

C=CC(=O)N1CC[C@H](Nc2nccc(Nc3ncc(C(=O)Nc4c(C)cccc4C)s3)n2)C1 [Example I-3]
% change of MS signal compared to control sample [1]: 30.5%

CCC(=O)N1CC[C@H](Nc2nccc(Nc3ncc(C(=O)Nc4c(C)cccc4C)s3)n2)C1 [Example I-9]
% change of MS signal compared to control sample [2]: −51.4% and −48.7% | % change of MS signal compared to control sample [3]: −3.3% and −0.4% | % change of MS signal compared to control sample [4]: −22.8% and −23.9% | % change of MS signal compared to control sample [5]: −27% and −18.7% | % change of MS signal compared to control sample [6]: −9.2% | % change of MS signal compared to control sample [7]: −13.4% and −5% | % change of MS signal compared to control sample [8]: 61.6% and 82.8% | % change of MS signal compared to control sample [9]: 85.2% and 94% | % change of MS signal compared to control sample [10]: 7% and −1.8% | % change of MS signal compared to control sample [11]: −6.4% and −4.8% | % change of MS signal compared to control sample [12]: −3.8% and 4% | % change of MS signal compared to control sample [13]: 81.7% and 85.6% | % change of MS signal compared to control sample [14]: 18.6% | % change of MS signal compared to control sample [15]: −19.3% and −10.6% | % change of MS signal compared to control sample [16]: 32.7% and 23.1% | % change of MS signal compared to control sample [17]: 93.7% and 95.4% | % change of MS signal compared to control sample [18]: −3.2% | % change of MS signal compared to control sample [19]: 53.3% and 78.9% | % change of MS signal compared to control sample [20]: −19% | % change of MS signal compared to control sample [21]: −1.1% and 7.7% | % change of MS signal compared to control sample [22]: −7% | % change of MS signal compared to control sample [23]: −1.8% and 1.1% | % change of MS signal compared to control sample [24]: −11.2% and −7.4% | % change of MS signal compared to control sample [25]: 13.6% | % change of MS signal compared to control sample [26]: −22% and −18.5% | % change of MS signal compared to control sample [27]: −4.9% and 0.5% | % change of MS signal compared to control sample [28]: 4.8% | % change of MS signal compared to control sample [29]: −18.8% and −10.7% | % change of MS signal compared to control sample [30]: −16.2% and −8.3%

Source: patent US10844077B2, “Thiazolyl-containing compounds for treating proliferative diseases” (Dana-Farber Cancer Institute, Inc., priority 2014, dated 2020)
